Activity calls are given as the source filed them. No cut-off for these calls is given here.

Data set [1] has as its target T1, Urotensin-2 receptor (Rattus norvegicus, UniProt P49684).
T1 sequence (P49684 whole entry): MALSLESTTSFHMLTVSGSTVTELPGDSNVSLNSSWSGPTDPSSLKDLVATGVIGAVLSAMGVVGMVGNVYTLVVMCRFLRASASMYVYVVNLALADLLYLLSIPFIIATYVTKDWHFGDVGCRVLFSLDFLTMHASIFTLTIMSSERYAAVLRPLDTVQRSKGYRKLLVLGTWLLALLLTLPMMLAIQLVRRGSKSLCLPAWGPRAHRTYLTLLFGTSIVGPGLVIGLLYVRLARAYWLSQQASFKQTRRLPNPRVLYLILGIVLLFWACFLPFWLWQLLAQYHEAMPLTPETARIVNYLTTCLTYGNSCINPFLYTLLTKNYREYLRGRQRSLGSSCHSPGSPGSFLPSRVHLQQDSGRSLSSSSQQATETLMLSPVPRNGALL
Briefly: Antagonist activity at rat UT receptor transfected in CHOK1 cells assessed as calcium mobilization by FLIPR method. The class given is functional, cell-based, CHO-K1. (Calcium assays in cells follow changes in intracellular calcium, usually with a dye or a luminescent sensor.)

In data set [2] the target is T2, Urotensin-2 receptor (Homo sapiens, UniProt Q9UKP6).
T2 sequence (Q9UKP6 whole entry): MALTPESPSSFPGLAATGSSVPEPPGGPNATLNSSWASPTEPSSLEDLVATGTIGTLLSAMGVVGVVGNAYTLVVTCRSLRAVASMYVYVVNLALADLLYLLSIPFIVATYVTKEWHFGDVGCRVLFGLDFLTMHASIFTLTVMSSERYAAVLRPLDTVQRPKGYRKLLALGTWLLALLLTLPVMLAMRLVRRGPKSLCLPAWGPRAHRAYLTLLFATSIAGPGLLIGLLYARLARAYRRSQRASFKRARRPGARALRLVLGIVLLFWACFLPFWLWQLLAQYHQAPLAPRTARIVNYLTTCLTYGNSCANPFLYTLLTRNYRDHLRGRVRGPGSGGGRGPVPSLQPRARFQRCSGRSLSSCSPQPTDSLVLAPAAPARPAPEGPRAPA
Briefly: Displacement of [125I]U2 from human UT receptor in RMS13 cells after 2.5 hrs. Format: cell-based. (In general: In a radioligand displacement assay an active substance lowers the binding of a labelled ligand.)

Data set [3] can be described thus: Half life in rat at 2 mg/kg, iv. The class given is ADME, organism-based. Set-up: dose 2 mg/kg, route intravenous. To be noted: in vivo.
Data set [4] can be described thus: Cmax in rat at 2 mg/kg, iv. Format: ADME, organism-based. To be noted: in vivo. Set-up: dose 2 mg/kg, route intravenous.
In data set [5] the test system is Rattus norvegicus. In words: Effect on ear pinna temperature in sc dosed rat. The class given is functional, organism-based.
The subject of data set [6] is Rattus norvegicus. Briefly: Decrease in U2-induced ear pinna temperature in iv dosed rat. Format: functional, organism-based.

The term IC50 denotes the midpoint of a concentration-inhibition curve. As usually defined, the Ki is the dissociation constant of the complex between target and ligand, obtained from inhibition or displacement. A low value points to tighter binding. What is called half-life is how long it takes for the measured level to halve. The low end stands for fast loss, the high end for slow loss. By Cmax is commonly meant the maximum level reached in the sampled fluid or tissue. On to `CC(C)(C)OC(=O)N1CCN(CCNC(=O)c2cc(Cl)ccc2C2CCN(CCN3C(=O)COc4ccccc43)CC2)CC1`, for which, on Urotensin-2 receptor [1], the concentration for half-maximal inhibition (IC50) is 10 nM. The same molecule gave an inhibition constant Ki on Urotensin-2 receptor [2] of 65 nM. Also, the half-life in data set [3] was 2.12 h. In addition, the peak concentration (Cmax) in data set [4] amounted to 553 ng/mL. In addition, the result in the data set with Rattus norvegicus [5] was inactive. In addition, in the data set on Rattus norvegicus [6], the outcome was Active.

Consider `CN(CCc1ccccc1)C(=O)C1(c2ccccc2)CCN(CCN2C(=O)COc3ccccc32)CC1`, for which the half-maximal inhibitory concentration (IC50) at Urotensin-2 receptor [1] came to 12000 nM.

In the case of `CN(CCCc1ccccc1)C(=O)C1(c2ccccc2)CCN(CCN2C(=O)COc3ccccc32)CC1`, the 50% inhibitory concentration (IC50) on Urotensin-2 receptor [1] worked out at 9100 nM.

The molecule `CC(C)(C)OC(=O)N1CCC(CCNC(=O)c2cc(Cl)ccc2C2CCN(CCN3C(=O)COc4ccccc43)CC2)CC1` came in with a Ki on Urotensin-2 receptor [2] of 77 nM.

In the case of `O=C1COc2ccccc2N1CCN1CCC(C(=O)NCc2ccccc2)(c2ccccc2)CC1`, at Urotensin-2 receptor [1], the IC50 came out at 43000 nM.

In turn, `CC(C)(C)CC(=O)N1CCC(CNC(=O)c2cc(Cl)ccc2C2CCN(CCN3C(=O)COc4ccccc43)CC2)CC1` registered an inhibitory constant (Ki) on Urotensin-2 receptor [2] of 27 nM.

As for `O=C(NCC1CCN(C(=O)c2ccccc2)CC1)c1cc(Cl)ccc1C1CCN(CCN2C(=O)COc3ccccc32)CC1`, the affinity on Urotensin-2 receptor [2], expressed as Ki, was 160 nM.

These data come from ChEMBL document CHEMBL1137625, “Phenylpiperidine-benzoxazinones as urotensin-II receptor antagonists: synthesis, SAR, and in vivo assessment” (Bioorg Med Chem Lett, 2007).
